Test results taken from patent publication US11708348B2, “Protease inhibitors for treatment of coronavirus infections” (The Scripps Research Institute, priority 2021, dated 2023).
Like-named read-outs stand apart in the source and are kept apart here.

Test system: SARS-CoV-2 strain USA-WA1/2020
Assay: microbe, parasite or virus in culture
Assay type: cell-based
Conditions: HeLa-ACE2 cells, SARS-CoV-2 infection, 24 h, read-out: EC50, uM (Hela)
[1] = Severe acute respiratory syndrome coronavirus 2, HeLa-ACE2, 24 h, class symbols
[2] = Severe acute respiratory syndrome coronavirus 2, HeLa-ACE2, 24 h

Compound: CC(C)C[C@H](NC(=O)C(=O)NCCc1ccccc1)C(=O)N[C@@H](C[C@@H]1CCNC1=O)C(=O)COc1c(F)c(F)cc(F)c1F [Compound 41, N1-((S)-4-methyl-1-oxo-1-(((S)-3-oxo-1-((S)-2-oxopyrrolidin-3-yl)-4-(2,3,5,6-tetrafluorophenoxy)butan-2-yl)amino)pentan-2-yl)-N2-phenethyloxalamide]
- EC50 [1]: 0.05 to 0.2 µM

Compound: COc1ccc(C(C)=O)cc1CC(=O)N[C@@H](CC(C)C)C(=O)N[C@@H](C[C@@H]1CCNC1=O)C(=O)COc1c(F)c(F)cc(F)c1F [Compound 154, (S)-2-(2-(5-acetyl-2-methoxyphenyl)acetamido)-4-methyl-N—((S)-3-oxo-1-((S)-2-oxopyrrolidin-3-yl)-4-(2,3,5,6-tetrafluorophenoxy)butan-2-yl)pentanamide]
- EC50 [1]: < 0.05 µM

Compound: CC(C)C[C@H](NC(=O)c1cc2ncccc2[nH]1)C(=O)N[C@@H](C[C@@H]1CCNC1=O)C(=O)COC(F)(F)F [Compound 248, N-((S)-4-methyl-1-oxo-1-(((S)-3-oxo-1-((S)-2-oxopyrrolidin-3-yl)-4-(trifluoromethoxy)butan-2-yl)amino)pentan-2-yl)-1H-pyrrolo[3,2-b]pyridine-2-carboxamide]
- EC50 [1]: 0.2 to 0.5 µM

Compound: CC(C)C[C@H](NC(=O)C1CCCNC1=O)C(=O)N[C@@H](C[C@@H]1CCNC1=O)C(=O)COC(F)(F)F (stereo partly drawn) [Compound 190, N-((S)-4-methyl-1-oxo-1-(((S)-3-oxo-1-((S)-2-oxopyrrolidin-3-yl)-4-(trifluoromethoxy)butan-2-yl)amino)pentan-2-yl)-2-oxopiperidine-3-carboxamide]
- EC50 (Severe acute respiratory syndrome coronavirus 2, HeLa-ACE2, 24 h, cells given as a bound): > 1 µM

Compound: O=C1NCC[C@H]1C[C@H](NC(=O)[C@@H]1CC2(CC2)CN1C(=O)c1ccc2c(c1)OC(F)(F)O2)C(=O)COC(F)(F)F [Compound 687, (S)-5-(2,2-difluorobenzo[d][1,3]dioxole-5-carbonyl)-N-((S)-3-oxo-1-((S)-2-oxopyrrolidin-3-yl)-4-(trifluoromethoxy)butan-2-yl)-5-azaspiro[2.4]heptane-6-carboxamide]
- EC50 [2]: < 0.05 µM

Compound: O=C(N[C@@H](CC1CCC1)C(=O)N[C@@H](C[C@@H]1CCNC1=O)C(=O)COC(F)(F)F)C(=O)NC12CC(F)(C1)C2 [Compound 565, N1-((S)-3-cyclobutyl-1-oxo-1-(((S)-3-oxo-1-((S)-2-oxopyrrolidin-3-yl)-4-(trifluoromethoxy)butan-2-yl)amino)propan-2-yl)-N2-(3-fluorobicyclo[1.1.1]-pentan-1-yl)oxalamide]
- EC50 [2]: < 0.05 µM

Compound: CC(C)C[C@H](NC(=O)C(=O)NC1CCCC1)C(=O)N[C@@H](C[C@@H]1CCNC1=O)C(=O)COc1c(F)c(F)cc(F)c1F [Compound 102, N1-cyclopentyl-N2-((S)-4-methyl-1-oxo-1-(((S)-3-oxo-1-((S)-2-oxopyrrolidin-3-yl)-4-(2,3,5,6-tetrafluorophenoxy)butan-2-yl)amino)pentan-2-yl)oxalamide]
- EC50 [1]: 0.05 to 0.2 µM

Compound: CC(C)C[C@@H](OC(F)F)C(=O)N1CC2(CC2)C[C@H]1C(=O)N[C@@H](C[C@@H]1CCNC1=O)C(=O)COC(F)(F)F [Compound 333, (S)-5-((R)-2-(difluoromethoxy)-4-methylpentanoyl)-N—((S)-3-oxo-1-((S)-2-oxopyrrolidin-3-yl)-4-(trifluoromethoxy)butan-2-yl)-5-azaspiro[2.4]heptane-6-carboxamide]
- EC50 [1]: < 0.05 µM

Compound: (S)-4-methyl-2-((l- methyl-1H-indole)-5- sulfonamido)-N-((S)- 3-oxo-1-((S)-2- oxopyrrolidin-3-yl)-4- (trifluoromethoxy)butan- 2-yl)pentanamide [Compound 463]
- EC50: 0.2 to 0.5 µM

Compound: CC[C@@H](O)C(=O)N1C[C@H]2[C@@H]([C@H]1C(=O)N[C@@H](C[C@@H]1CCNC1=O)C(=O)COC(F)(F)F)C2(C)C [Compound 368, (1R,2S,5S)-3-((R)-2-hydroxybutanoyl)-6,6-dimethyl-N-((S)-3-oxo-1-((S)-2-oxopyrrolidin-3-yl)-4-(trifluoromethoxy)butan-2-yl)-3-azabicyclo[3.1.0]= hexane-2-carboxamide]
- EC50 [1]: 0.05 to 0.2 µM
